Measured values as given in paper PMC4160273 (Journal of the American Chemical Society, 2014).
Like-named read-outs stand apart in the source and are kept apart here.

Key:
[1] = thiol, cited from earlier work
endogenous RSK1 and RSK2 = test: RSK1/2 occupancy in MDA-MB-231 cells by competitive labeling with BODIPY-FMK; format: cell-based; settings: 0.1 and 1.0 μM, 2 h
RSK2 CTD = RSK2 CTD (Mus musculus, UniProt P18654); settings: after 4 hours, guanidine

## OCCS [BME, β-mercaptoethanol]
[1]; ref [34]
  pKa: 9.6

## Cc1ccc(-c2c(C=C(C#N)c3ccncc3)n(CCCO)c3ncnc(N)c23)cc1 [compound 17]
Endogenous RSK1 and RSK2
  Labeling of RSK1/2 by BODIPY-FMK in pretreated cells: less effective

## COc1cc(-c2n[nH]c3ccc(C=C(C#N)n4cccn4)cc23)cc(OC)c1OC [S3]
RSK2 CTD
  % dissociation / recovered from RSK2 after unfolding: ~ 2%

## NCCS [cysteamine]
[1]; ref [36]
  pKa: 8.4
